According to the supplement of paper PMC10307832:

Columns and labels:
Assay in all cases: relative viability (nuclei count vs DMSO), 5 days (fraction); higher = more cells survive
NCI-H838 = test system: NCI-H838
In short: (§1)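 Lung cancer cell lines were pin-tool dosed in 1536-well plates on the day after seeding, with either a lone drug or a fixed anchor-drug dose plus five library-drug doses (not always all listed) in √10 steps. Nuclei were counted on 4× images after 5 days. Relative viability is the ratio of treated-well to vehicle-well nuclei counts, with each value a median of duplicate plates.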

HCC-78 = test system: HCC-78
In short: as §1

EKVX = test system: EKVX
In short: as §1

HOP-62 = test system: HOP-62
In short: as §1

NCI-H2087 = test system: NCI-H2087
In short: as §1

NCI-H1395 = test system: NCI-H1395
In short: as §1

LOU-NH91 = test system: LOU-NH91
In short: as §1

HCC-44 = test system: HCC-44
In short: as §1

ChaGo-K-1 = test system: ChaGo-K-1
In short: as §1

SK-MES-1 = test system: SK-MES-1
In short: as §1

HCC-366 = test system: HCC-366
In short: as §1

COR-L23 = test system: COR-L23
In short: as §1

A-427 = test system: A-427
In short: as §1

NCI-H1915 = test system: NCI-H1915
In short: as §1

NCI-H1650 = test system: NCI-H1650
In short: as §1

NCI-H1734 = test system: NCI-H1734
In short: as §1

NCI-H2023 = test system: NCI-H2023
In short: as §1

EPLC-272H = test system: EPLC-272H
In short: as §1

NCI-H596 = test system: NCI-H596
In short: as §1

NCI-H3122 = test system: NCI-H3122
In short: as §1

Structure (SMILES): Cc1cnc(-c2cnc(NCCNc3ccc(C#N)cn3)nc2-c2ccc(Cl)cc2Cl)[nH]1 + CC1(C)CCC(c2ccc(Cl)cc2)=C(CN2CCN(c3ccc(C(=O)NS(=O)(=O)c4ccc(N[C@H](CCN5CCOCC5)CSc5ccccc5)c(S(=O)(=O)C(F)(F)F)c4)cc3)CC2)C1 [Navitoclax] (partner 0.5 µM)
- relative viability (NCI-H838; first compound 0.08 µM): 1.21
- relative viability (NCI-H838; first compound 0.253 µM): 1.11
- relative viability (NCI-H838; first compound 0.8 µM): 1.44
- relative viability (NCI-H838; first compound 2.53 µM): 1.6
- relative viability (HCC-78; first compound 0.08 µM): 0.955
- relative viability (HCC-78; first compound 0.253 µM): 0.661
- relative viability (HCC-78; first compound 0.8 µM): 0.701
- relative viability (HCC-78; first compound 2.53 µM): 0.757
- relative viability (EKVX; first compound 0.08 µM): 0.715
- relative viability (EKVX; first compound 0.253 µM): 0.844
- relative viability (EKVX; first compound 0.8 µM): 0.905
- relative viability (EKVX; first compound 2.53 µM): 0.814
- relative viability (HOP-62; first compound 0.08 µM): 1.13
- relative viability (HOP-62; first compound 0.253 µM): 0.843
- relative viability (HOP-62; first compound 0.8 µM): 0.997
- relative viability (HOP-62; first compound 2.53 µM): 0.768
- relative viability (NCI-H2087; first compound 0.08 µM): 0.88
- relative viability (NCI-H2087; first compound 0.253 µM): 0.966
- relative viability (NCI-H2087; first compound 0.8 µM): 1.03
- relative viability (NCI-H2087; first compound 2.53 µM): 0.967
- relative viability (NCI-H1395; first compound 0.08 µM): 1.25
- relative viability (NCI-H1395; first compound 0.253 µM): 1.15
- relative viability (NCI-H1395; first compound 0.8 µM): 1.19
- relative viability (NCI-H1395; first compound 2.53 µM): 1.15
- relative viability (LOU-NH91; first compound 0.08 µM): 0.821
- relative viability (LOU-NH91; first compound 0.253 µM): 0.679
- relative viability (LOU-NH91; first compound 0.8 µM): 0.611
- relative viability (LOU-NH91; first compound 2.53 µM): 0.633
- relative viability (HCC-44; first compound 0.08 µM): 1.05
- relative viability (HCC-44; first compound 0.253 µM): 0.792
- relative viability (HCC-44; first compound 0.8 µM): 0.971
- relative viability (HCC-44; first compound 2.53 µM): 1.03
- relative viability (ChaGo-K-1; first compound 0.08 µM): 0.791
- relative viability (ChaGo-K-1; first compound 0.253 µM): 0.863
- relative viability (ChaGo-K-1; first compound 0.8 µM): 0.516
- relative viability (ChaGo-K-1; first compound 2.53 µM): 0.856
- relative viability (SK-MES-1; first compound 0.08 µM): 1.19
- relative viability (SK-MES-1; first compound 0.253 µM): 1.14
- relative viability (SK-MES-1; first compound 2.53 µM): 1.14
- relative viability (HCC-366; first compound 0.08 µM): 1.04
- relative viability (HCC-366; first compound 0.253 µM): 1.02
- relative viability (HCC-366; first compound 0.8 µM): 1.09
- relative viability (HCC-366; first compound 2.53 µM): 0.89
- relative viability (COR-L23; first compound 0.08 µM): 1.07
- relative viability (COR-L23; first compound 0.253 µM): 1.03
- relative viability (COR-L23; first compound 0.8 µM): 1.09
- relative viability (COR-L23; first compound 2.53 µM): 1.06
- relative viability (A-427; first compound 0.08 µM): 0.939
- relative viability (A-427; first compound 0.253 µM): 0.947
- relative viability (A-427; first compound 0.8 µM): 0.973
- relative viability (A-427; first compound 2.53 µM): 0.925
- relative viability (NCI-H1915; first compound 0.08 µM): 0.85
- relative viability (NCI-H1915; first compound 0.8 µM): 0.704
- relative viability (NCI-H1915; first compound 2.53 µM): 0.778
- relative viability (NCI-H1650; first compound 0.08 µM): 1.13
- relative viability (NCI-H1650; first compound 0.253 µM): 1.05
- relative viability (NCI-H1650; first compound 0.8 µM): 1.42
- relative viability (NCI-H1650; first compound 2.53 µM): 1.21
- relative viability (NCI-H1734; first compound 0.08 µM): 0.946
- relative viability (NCI-H1734; first compound 0.253 µM): 0.784
- relative viability (NCI-H1734; first compound 0.8 µM): 0.829
- relative viability (NCI-H1734; first compound 2.53 µM): 0.788
- relative viability (NCI-H2023; first compound 0.08 µM): 1.01
- relative viability (NCI-H2023; first compound 0.253 µM): 0.977
- relative viability (NCI-H2023; first compound 0.8 µM): 1.08
- relative viability (NCI-H2023; first compound 2.53 µM): 1.09
- relative viability (EPLC-272H; first compound 0.08 µM): 1.22
- relative viability (EPLC-272H; first compound 0.253 µM): 1.31
- relative viability (EPLC-272H; first compound 0.8 µM): 1.12
- relative viability (EPLC-272H; first compound 2.53 µM): 1.07
- relative viability (NCI-H596; first compound 0.08 µM): 1.1
- relative viability (NCI-H596; first compound 0.253 µM): 0.79
- relative viability (NCI-H596; first compound 0.8 µM): 0.882
- relative viability (NCI-H596; first compound 2.53 µM): 0.897
- relative viability (NCI-H3122; first compound 0.08 µM): 0.988
- relative viability (NCI-H3122; first compound 0.253 µM): 0.881
- relative viability (NCI-H3122; first compound 0.8 µM): 0.977
- relative viability (NCI-H3122; first compound 2.53 µM): 0.994
